Data reported in patent publication EP0179583A1, “A system for enhancing the water dissolution rate and solubility of poorly soluble drugs” (Merck & Co., Inc., priority 1984, dated 1986).

How the values were obtained:
Format in all cases: physicochemical
[1] = Dissolution of compressed tablets in water (Example 10); details: compressed tablets of ivermectin alone
Method: The dissolution of said tablets to yield a clear infinitely diluable aqueous solution of ivermectin is very rapid (15 minutes with gentle agitation).

[2] = Dissolution rate, solution/adsorption products versus comparison (Example 11); details: added alone or dissolved in glycerol formal to an aqueous surfactant solution
Source text: 37 parts of each of the solutions produced in Examples 5 and 6 is dry blended with I part of Accurel powder (50-75% void space). This mixture is then blended with 12 parts of Cab-O-Sil to produce a dry free-flowing powder which may be used as such or tableted as in Example 10.

[3] = Dissolution of thermoplastic solids in deionized distilled water (Example 12); details: ivermectin into an aqueous solution of an equivalent amount of thermoplastic surfactant
[4] = Solubility in deionized distilled water (Example 14)
Method: A solution of 5% (50 mg/ml) w/v ivermectin is prepared by dissolving the product in Examples 1-5 and 7-9 in sufficient deionized distilled water. A mixture of an equivalent amount of ivermectin in deonized distilled water is only marginally soluble (1-4 mcg/ml). Therefore, the solubility of a poorly water soluble drug is enhanced (50,000 mcg/ml).

Substance: ivermectin
- time within which tablets do not dissolve or disintegrate [1]: > 3 days
- dissolution rates compared with the invention [2]: less than those observed with the invention
- dissolution rate compared with the method of the invention [3]: significantly slower
- solubility [4]: 1 to 4 µg/mL
